Laboratory results: publication PMC10418970, “Effective and Selective Ru(II)-Arene Complexes Containing 4,4′-Substituted 2,2′ Bipyridine Ligands Targeting Human Urinary Bladder Cancer Cells” (International Journal of Molecular Sciences, 2023)

How the values were obtained:
[1] = system: HepG-2-hepatic cells; experiment: MTT cell proliferation assay, HepG-2; assay type: cell-based, human; details: 24 h incubation
[2] = system: T24-bladder cells; experiment: MTT cell proliferation assay, T24; assay type: cell-based, human; details: 24 h incubation
[3] = system: MCF-10a-breast epithelial cells; experiment: MTT cell proliferation assay, MCF-10a; assay type: cell-based, human; details: 24 h incubation; healthy cells
[4] = system: EA.hy926 endothelial cells; experiment: MTT cell proliferation assay, EA.hy926; assay type: cell-based, human; details: 24 h incubation
[5] = system: Vero cells; experiment: MTT cell proliferation assay, Vero; assay type: cell-based, African green monkey; details: 24 h incubation; healthy cells
[6] = system: EB-CTDNA adduct; experiment: EB/CTDNA fluorescence competition (quenching); assay type: binding, calf; details: [DNA] 5 μM, [EB] 5 μM, complex 0-50 μM
Method: To learn more about the binding properties of 1–7 with CTDNA, the fluorescence competition technique is employed. EB is an orange fluorescent dye and an intercalating agent for DNA.
3.2 Fluorescence titration experiments
The displacement of the EB-bound was obtained by
treated with a saturating ethidium bromide 5 µM.
Figure S5. […] [DNA]= 5 µM,
[EB] = 5 µM and [complex] = 0˗50 µM. […]

[7] = system: T24 cells; experiment: Flow cytometry FITC Annexin V apoptosis assay; assay type: cell-based, human; details: at IC50 concentration (1: […]; 2: 14.5 μM)
Method: Figure S10. Cytotoxic effects of complexes ( 1-7) against (A) EA.hy-926, (B) HepG-2, (C) T24, (D) normal kidney (Vero) cells
and (E) MCF-10a-breast epithelial . Data expressed in SD±mean with three replicates.
After 24 h incubation, control and treated cells were stained with acriddine
orange (AO)/ethidium bromide (EB) and incubated for 10 min. The images were taken immediately under fluorescent
8. Flow cytometry studies
The cell apoptotic rate was determined by flow cytometry analysis with the fluorescein isothiocyanate (FITC)
Annexin V apoptosis detection kit (Multi Sciences, China). T24 cancer cells were collected by trypsinization, washed
twice and resuspended in […], 1 × binding buffer with […] of FITC Annexin V and […] of PI. After incubation for
15 min, the samples were subjected to analysis by flow cytometry. The results were analysed with the BD FACS Calibur™
(1 picture or pasted object on this page, not shown here)

[8] = molecular target: T1, Bovine serum albumin (BSA) (Bos taurus, UniProt P02769); experiment: BSA fluorescence titration (Stern-Volmer, Scatchard); assay type: binding; details: for number of binding sites (n) on BSA: Scatchard equation; for BSA quenching constant Kq: [BSA] 1 μM, complex 0-20 μM, phosphate buffer pH 7.2
T1 construct: purchased Sigma Aldrich
Excerpt: To explore the mode of complex-protein interaction, we monitor the BSA fluorescence quenching at […] by addition of increasing amounts of 1–7 to a fixed quantity of BSA (Figure S7). […] The molar absorptivity of tyrosine and phenylalanine are 10- and 200-fold weaker than tryptophan, respectively, and are ignored in the modelling. […] The complex binding-induced fluorescence quenching is described by the linear Stern–Volmer relationship (Figure 12A) to obtain the quenching constant Kq (see SI for details). Further, the equilibrium binding constant (Kb) of the complex to BSA and the number of binding sites (n) are obtained by casting the fluorescence intensity in the absence of quencher (F^0) and quencher concentration [Q] dependent F into the Scatchard equation [35]: log [(F^0− F)/F] = log Kb + n log[Q], as shown in Figure 12B.
4 Interaction of complexes with Bovine serum albumin
4.1 Fluorescence titration
The interaction of complexes with BSA was studied using fluorescence spectra, recorded at a fixed excitation wavelength corresponding to BSA at 280 nm and monitoring the emission at 335 nm. Stock solution of BSA were prepared by dissolving commercial BSA in 50mM phosphate buffer (pH 7.2) and stored at 4 οC for further use.
Concentrated stock solution of each test compound were prepared by dissolving it in DMF-phosphate buffer (5:95) and diluted with phosphate buffer to get required concentrations. For the fluorescence measurements, 2.5 mL solution of BSA was titrated with successive additions of […] stock solution of complexes (0-20 µM) […]
Figure S7. Fluorescence quenching curves of BSA in the absence and presence of complexes 1-7. […]

[9] = Solubility (observation)
[10] = Shake-flask water-octanol Log p; details: n-octanol / water containing 0.45% sodium chloride, 0.5 mM, 37 °C
Method: The complex was dissolved in a mixture with equal volumes of pre-saturated n-octanol and water to a final concentration of 0.5 mM. The mixture was shaken at 250 rpm for 24 h at 37 °C and then centrifuged at 3000 rpm for 10 min. The complex concentration (C) in each phase was measured by UV-Vis spectroscopy and used to calculate Log p, according to the formula Log p = log (Coctanol/Cwater).

T1 sequence (P02769 25-607): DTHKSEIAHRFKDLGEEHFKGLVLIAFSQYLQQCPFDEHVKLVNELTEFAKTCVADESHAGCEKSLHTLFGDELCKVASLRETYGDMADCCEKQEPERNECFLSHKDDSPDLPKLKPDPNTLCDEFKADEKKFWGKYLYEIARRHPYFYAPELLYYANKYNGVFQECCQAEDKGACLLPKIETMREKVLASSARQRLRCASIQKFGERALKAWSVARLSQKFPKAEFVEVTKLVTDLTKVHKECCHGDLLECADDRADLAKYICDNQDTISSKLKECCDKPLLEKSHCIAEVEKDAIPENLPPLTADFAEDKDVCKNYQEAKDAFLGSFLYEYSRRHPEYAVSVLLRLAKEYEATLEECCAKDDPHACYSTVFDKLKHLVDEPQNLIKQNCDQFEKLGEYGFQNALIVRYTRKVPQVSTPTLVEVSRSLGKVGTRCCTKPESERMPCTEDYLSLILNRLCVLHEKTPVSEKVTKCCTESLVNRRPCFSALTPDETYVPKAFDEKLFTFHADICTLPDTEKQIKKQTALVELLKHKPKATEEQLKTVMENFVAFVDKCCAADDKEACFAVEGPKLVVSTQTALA

## N.N.[Cl][Pt][Cl] [Cisplatin, reference compound]
[1]
  IC50: 49.1 µM
[2]
  IC50: > 50 µM
[3]
  IC50: 29.1 µM
[4]
  IC50: 22.9 µM
[5]
  IC50: 33.7 µM

## Cc1ccc(C(C)C)cc1.O=C(O)c1ccnc(-c2cc(C(=O)O)ccn2)c1.[Cl-].[Cl-].[Ru+2] [Complex 2, [Ru-η^6-p-cymene-(4,4′-(COOH)2bipy)Cl]Cl]
[6]
  Stern–Volmer quenching constant Kq (EB/CTDNA): 4.89 10^4 M^−1
[1]
  IC50: > 50 µM
[2]
  IC50: 14.5 µM
[3]
  IC50: > 50 µM
[7]
  apoptotic rate (late + early): 18.24%
  early apoptosis (Q3): 10.9%
  late apoptosis (Q2): 7.34%
[4]
  IC50: > 50 µM
[8]
  number of binding sites (n) on BSA: 1.2
  BSA quenching constant Kq: 6.446 × 10^4 10^4 M^−1
[9]
  solubility: more soluble in high polar organic solvents
[5]
  IC50: > 50 µM
[10]
  Log p Exp. Shake Flask: −1.65

## COC(=O)c1ccnc(-c2cc(C(=O)OC)ccn2)c1.Cc1ccc(C(C)C)cc1.[Cl-].[Cl-].[Ru+2] [Complex 3, [Ru-η^6-p-cymene-(4,4′-(COOCH3)2bipy)Cl]Cl]
[6]
  Stern–Volmer quenching constant Kq (EB/CTDNA): 6.05 10^4 M^−1
  apparent DNA binding constant Kapp: 3.02 10^6 M^−1
[1]
  IC50: > 50 µM
[2]
  IC50: 21.2 µM
[3]
  IC50: > 50 µM
[4]
  IC50: 30.8 µM
[8]
  number of binding sites (n) on BSA: 1.0
  BSA quenching constant Kq: 3.622 × 10^4 10^4 M^−1
[5]
  IC50: 45.6 µM

## CCOC(=O)c1ccnc(-c2cc(C(=O)OCC)ccn2)c1.Cc1ccc(C(C)C)cc1.[Cl-].[Cl-].[Ru+2] [Complex 4, [Ru-η^6-p-cymene-(4,4′-(COOC2H5)2bipy)Cl]Cl]
[6]
  Stern–Volmer quenching constant Kq (EB/CTDNA): 6.36 10^4 M^−1
  apparent DNA binding constant Kapp: 3.18 10^6 M^−1
[1]
  IC50: 21.1 µM
[2]
  IC50: 12.3 µM
[3]
  IC50: 40.1 µM
[4]
  IC50: 32.3 µM
[8]
  number of binding sites (n) on BSA: 1.0
  BSA quenching constant Kq: 3.777 × 10^4 10^4 M^−1
[5]
  IC50: 31.2 µM
[10]
  Log p Exp. Shake Flask: 0.88

## CC(C)(C)c1ccnc(-c2cc(C(C)(C)C)ccn2)c1.[Cl-].[Cl-].[Ru+2].c1ccccc1 [Complex 5, [Ru-η^6-benzene-(4,4′-(C4H9)2bipy)Cl]Cl]
[10]
  Log p Exp. Shake Flask: 2.45

## COC(=O)c1ccnc(-c2cc(C(=O)OC)ccn2)c1.[Cl-].[Cl-].[Ru+2].c1ccccc1 [Complex 6, [Ru-η^6-benzene-(4,4′-(COOCH3)2bipy)Cl]Cl]
[6]
  Stern–Volmer quenching constant Kq (EB/CTDNA): 6.69 10^4 M^−1
  apparent DNA binding constant Kapp: 3.34 10^6 M^−1
[1]
  IC50: 14.5 µM
[2]
  IC50: 41.2 µM
[3]
  IC50: > 50 µM
[4]
  IC50: 49.3 µM
[8]
  number of binding sites (n) on BSA: 1.0
  BSA quenching constant Kq: 3.103 × 10^4 10^4 M^−1
[5]
  IC50: 49.2 µM
[10]
  Log p Exp. Shake Flask: −1.12

## CCOC(=O)c1ccnc(-c2cc(C(=O)OCC)ccn2)c1.[Cl-].[Cl-].[Ru+2].c1ccccc1 [Complex 7, [Ru-η^6-benzene-(4,4′-(COOC2H5)2bipy)Cl]Cl]
[6]
  Stern–Volmer quenching constant Kq (EB/CTDNA): 7.21 10^4 M^−1
  apparent DNA binding constant Kapp: 3.61 10^6 M^−1
[1]
  IC50: 41.6 µM
[2]
  IC50: 19.8 µM
[3]
  IC50: > 50 µM
[4]
  IC50: 23.8 µM
[8]
  number of binding sites (n) on BSA: 1.1
  BSA quenching constant Kq: 4.779 × 10^4 10^4 M^−1
[5]
  IC50: 33.9 µM
[10]
  Log p Exp. Shake Flask: −0.14
